Consider 6 compounds from ChEMBL document CHEMBL5137065, “Recent Advances with KDM4 Inhibitors and Potential Applications” (J Med Chem, 2022).

Molecules are shown by their SMILES.

The target of data set [1] is T1, Lysine-specific demethylase 4A (Homo sapiens, UniProt O75164).
T1 sequence (O75164 whole entry): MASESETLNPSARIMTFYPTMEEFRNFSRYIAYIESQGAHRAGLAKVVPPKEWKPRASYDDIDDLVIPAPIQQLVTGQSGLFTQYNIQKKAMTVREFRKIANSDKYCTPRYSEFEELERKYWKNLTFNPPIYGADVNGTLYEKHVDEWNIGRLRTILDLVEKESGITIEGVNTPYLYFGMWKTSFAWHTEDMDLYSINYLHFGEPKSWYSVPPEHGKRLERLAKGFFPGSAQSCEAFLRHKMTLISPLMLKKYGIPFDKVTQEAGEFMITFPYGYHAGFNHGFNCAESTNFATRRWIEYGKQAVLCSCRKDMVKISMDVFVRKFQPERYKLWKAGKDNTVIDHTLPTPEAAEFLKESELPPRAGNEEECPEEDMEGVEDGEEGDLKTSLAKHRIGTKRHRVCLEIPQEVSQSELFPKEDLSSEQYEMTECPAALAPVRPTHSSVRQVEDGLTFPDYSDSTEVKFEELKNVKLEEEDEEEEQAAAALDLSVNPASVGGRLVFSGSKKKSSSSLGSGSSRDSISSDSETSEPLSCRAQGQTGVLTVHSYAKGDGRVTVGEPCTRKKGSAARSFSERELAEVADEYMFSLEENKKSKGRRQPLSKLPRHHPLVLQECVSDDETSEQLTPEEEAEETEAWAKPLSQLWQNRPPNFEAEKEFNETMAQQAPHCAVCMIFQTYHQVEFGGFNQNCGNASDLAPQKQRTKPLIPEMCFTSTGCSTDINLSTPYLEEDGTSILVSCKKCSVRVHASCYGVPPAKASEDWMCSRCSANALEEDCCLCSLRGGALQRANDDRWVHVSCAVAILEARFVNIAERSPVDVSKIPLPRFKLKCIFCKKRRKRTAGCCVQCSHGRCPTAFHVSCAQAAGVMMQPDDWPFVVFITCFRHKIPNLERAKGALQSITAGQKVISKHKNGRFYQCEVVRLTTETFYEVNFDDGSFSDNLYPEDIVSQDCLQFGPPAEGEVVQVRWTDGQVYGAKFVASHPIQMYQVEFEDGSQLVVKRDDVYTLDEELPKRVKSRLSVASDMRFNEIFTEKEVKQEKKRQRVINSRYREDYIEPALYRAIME
Briefly: Inhibition of binding of H3K4Me3 to KDM4A tudor domain (unknown origin) measured by NanoBRET-based cellular proximity assay.

Data set [2] in a line: Permeability of compound in human Caco-2 cells. The settings on record: read-out: permeability. Format: ADME, cell-based.
In data set [3] the target is T1, Lysine-specific demethylase 4A.
Data set [4] has the same target. This is another data set of the same source.
Data set [5] concerns the target T2, Lysine-specific demethylase 2A (Homo sapiens, UniProt Q9Y2K7).
T2 sequence (Q9Y2K7 whole entry): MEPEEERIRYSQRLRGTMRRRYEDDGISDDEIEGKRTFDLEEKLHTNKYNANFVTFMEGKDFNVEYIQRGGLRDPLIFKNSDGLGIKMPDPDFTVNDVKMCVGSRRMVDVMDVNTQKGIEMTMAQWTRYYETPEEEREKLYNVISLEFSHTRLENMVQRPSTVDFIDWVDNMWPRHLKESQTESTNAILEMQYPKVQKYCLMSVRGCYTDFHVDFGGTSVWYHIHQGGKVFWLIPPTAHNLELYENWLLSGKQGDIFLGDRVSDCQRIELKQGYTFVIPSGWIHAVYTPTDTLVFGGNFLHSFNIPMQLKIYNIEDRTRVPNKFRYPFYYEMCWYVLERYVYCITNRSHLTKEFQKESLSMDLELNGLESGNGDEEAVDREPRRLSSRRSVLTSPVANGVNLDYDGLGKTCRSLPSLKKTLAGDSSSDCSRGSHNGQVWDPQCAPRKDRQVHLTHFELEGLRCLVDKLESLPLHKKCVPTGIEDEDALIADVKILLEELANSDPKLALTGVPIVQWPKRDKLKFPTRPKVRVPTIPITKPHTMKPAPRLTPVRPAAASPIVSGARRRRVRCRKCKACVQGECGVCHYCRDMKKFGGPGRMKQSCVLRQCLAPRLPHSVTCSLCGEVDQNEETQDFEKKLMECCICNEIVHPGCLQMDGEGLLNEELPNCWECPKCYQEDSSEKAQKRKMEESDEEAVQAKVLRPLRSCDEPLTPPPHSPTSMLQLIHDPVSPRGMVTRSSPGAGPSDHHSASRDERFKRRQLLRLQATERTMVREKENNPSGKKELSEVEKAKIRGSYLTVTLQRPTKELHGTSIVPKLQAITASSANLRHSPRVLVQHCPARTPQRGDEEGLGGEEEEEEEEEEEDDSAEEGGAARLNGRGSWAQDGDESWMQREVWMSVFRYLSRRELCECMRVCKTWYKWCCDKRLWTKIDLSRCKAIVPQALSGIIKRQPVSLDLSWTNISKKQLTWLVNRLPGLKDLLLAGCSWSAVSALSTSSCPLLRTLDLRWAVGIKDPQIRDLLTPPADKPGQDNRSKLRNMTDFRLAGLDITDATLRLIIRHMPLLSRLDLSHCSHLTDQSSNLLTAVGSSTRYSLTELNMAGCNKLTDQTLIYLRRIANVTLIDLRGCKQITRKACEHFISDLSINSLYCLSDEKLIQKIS
Briefly: Inhibition of KDM2A in human MIA PaCa-2 cells assessed as induction of H3K36me2 measured by immunofluorescence assay. Format: cell-based.

Data set [6] has as its target T3, Lysine-specific demethylase 4D (Homo sapiens, UniProt Q6B0I6).
T3 sequence (Q6B0I6 whole entry): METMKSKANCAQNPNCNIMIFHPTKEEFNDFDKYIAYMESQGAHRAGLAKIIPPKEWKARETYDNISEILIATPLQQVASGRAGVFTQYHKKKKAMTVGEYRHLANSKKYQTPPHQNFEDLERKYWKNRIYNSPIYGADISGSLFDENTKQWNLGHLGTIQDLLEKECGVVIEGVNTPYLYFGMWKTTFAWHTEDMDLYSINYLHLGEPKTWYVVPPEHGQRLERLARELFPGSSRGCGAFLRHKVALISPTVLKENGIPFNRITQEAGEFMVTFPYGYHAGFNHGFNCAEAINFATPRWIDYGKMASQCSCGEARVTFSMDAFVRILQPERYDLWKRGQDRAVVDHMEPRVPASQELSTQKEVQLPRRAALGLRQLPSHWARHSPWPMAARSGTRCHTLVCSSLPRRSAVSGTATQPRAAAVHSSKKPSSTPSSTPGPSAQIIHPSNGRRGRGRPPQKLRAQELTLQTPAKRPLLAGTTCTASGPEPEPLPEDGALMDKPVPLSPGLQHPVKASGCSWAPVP
Briefly: Inhibition of human KDM4D measured by AlphaLISA assay. For orientation: Alpha assays give light when donor and acceptor beads are brought close together.

Data set [7] has as its target T4, Lysine-specific demethylase 4B (Homo sapiens, UniProt O94953).
T4 sequence (O94953 whole entry): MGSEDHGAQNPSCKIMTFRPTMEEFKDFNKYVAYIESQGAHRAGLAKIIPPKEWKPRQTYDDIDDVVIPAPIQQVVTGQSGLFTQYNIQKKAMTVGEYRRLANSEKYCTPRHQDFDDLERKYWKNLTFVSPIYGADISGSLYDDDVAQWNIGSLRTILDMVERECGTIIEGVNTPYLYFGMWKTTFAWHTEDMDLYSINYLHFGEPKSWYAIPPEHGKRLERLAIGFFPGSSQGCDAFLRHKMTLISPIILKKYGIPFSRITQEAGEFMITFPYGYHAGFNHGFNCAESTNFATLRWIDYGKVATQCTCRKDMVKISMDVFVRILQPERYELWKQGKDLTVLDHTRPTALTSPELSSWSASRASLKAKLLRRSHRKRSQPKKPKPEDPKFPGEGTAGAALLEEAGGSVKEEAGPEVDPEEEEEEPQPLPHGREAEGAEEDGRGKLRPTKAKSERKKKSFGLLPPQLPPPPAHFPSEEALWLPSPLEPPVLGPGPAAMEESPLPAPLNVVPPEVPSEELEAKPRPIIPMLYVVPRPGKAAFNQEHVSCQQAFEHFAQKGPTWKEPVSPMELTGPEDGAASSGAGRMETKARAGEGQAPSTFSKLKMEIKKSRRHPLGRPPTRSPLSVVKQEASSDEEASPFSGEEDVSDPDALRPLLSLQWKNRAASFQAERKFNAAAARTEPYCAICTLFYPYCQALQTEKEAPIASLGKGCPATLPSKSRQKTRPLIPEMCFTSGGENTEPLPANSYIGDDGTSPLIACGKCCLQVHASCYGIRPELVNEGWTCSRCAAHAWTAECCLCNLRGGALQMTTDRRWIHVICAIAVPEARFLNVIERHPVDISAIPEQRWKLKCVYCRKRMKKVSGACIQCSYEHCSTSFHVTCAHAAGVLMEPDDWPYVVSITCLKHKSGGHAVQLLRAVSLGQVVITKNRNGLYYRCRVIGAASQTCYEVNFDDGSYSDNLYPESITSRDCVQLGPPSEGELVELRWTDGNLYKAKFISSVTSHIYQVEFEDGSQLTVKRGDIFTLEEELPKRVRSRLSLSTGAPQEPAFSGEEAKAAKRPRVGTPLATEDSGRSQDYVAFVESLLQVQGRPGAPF
Briefly: Inhibition of human KDM4B measured by AlphaLISA assay.

Data set [8] deals with T5, Lysine-specific demethylase 4C (Homo sapiens, UniProt Q9H3R0).
T5 sequence (Q9H3R0 whole entry): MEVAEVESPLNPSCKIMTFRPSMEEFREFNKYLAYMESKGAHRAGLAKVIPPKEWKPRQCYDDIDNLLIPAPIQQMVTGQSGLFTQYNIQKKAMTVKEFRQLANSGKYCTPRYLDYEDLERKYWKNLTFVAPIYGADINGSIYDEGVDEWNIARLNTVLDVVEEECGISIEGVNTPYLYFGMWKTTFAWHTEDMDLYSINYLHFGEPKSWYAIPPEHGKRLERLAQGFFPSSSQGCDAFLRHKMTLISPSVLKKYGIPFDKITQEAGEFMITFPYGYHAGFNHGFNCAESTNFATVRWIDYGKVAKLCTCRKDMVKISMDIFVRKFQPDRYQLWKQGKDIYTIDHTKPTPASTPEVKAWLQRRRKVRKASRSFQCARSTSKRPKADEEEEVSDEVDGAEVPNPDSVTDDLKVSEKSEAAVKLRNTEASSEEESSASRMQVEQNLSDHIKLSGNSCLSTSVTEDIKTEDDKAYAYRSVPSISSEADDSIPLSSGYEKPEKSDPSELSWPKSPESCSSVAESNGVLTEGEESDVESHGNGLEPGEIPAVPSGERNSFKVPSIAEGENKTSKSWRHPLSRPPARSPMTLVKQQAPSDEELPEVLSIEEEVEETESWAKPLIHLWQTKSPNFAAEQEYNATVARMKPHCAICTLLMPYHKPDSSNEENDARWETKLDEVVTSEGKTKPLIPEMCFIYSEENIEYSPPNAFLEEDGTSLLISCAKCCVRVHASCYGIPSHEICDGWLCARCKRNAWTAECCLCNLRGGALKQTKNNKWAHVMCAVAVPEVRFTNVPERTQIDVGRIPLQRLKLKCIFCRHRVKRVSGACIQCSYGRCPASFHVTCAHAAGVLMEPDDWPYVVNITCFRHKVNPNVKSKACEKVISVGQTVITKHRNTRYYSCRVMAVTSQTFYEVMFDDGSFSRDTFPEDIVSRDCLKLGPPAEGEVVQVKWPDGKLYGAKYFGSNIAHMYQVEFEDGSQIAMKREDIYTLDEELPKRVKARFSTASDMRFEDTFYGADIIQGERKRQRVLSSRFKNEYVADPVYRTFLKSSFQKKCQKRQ
Briefly: Inhibition of human KDM4C measured by AlphaLISA assay.

The next data set deals with DU-145. Briefly: Antiproliferative activity against human DU-145 cells measured by Alamarblue assay. Format: functional. (Resazurin is reduced to fluorescent resorufin, in cell work by metabolically active cells.)
In the next data set the test system is LNCaP. Briefly: Antiproliferative activity against human LNCaP cells measured by Alamarblue assay. Format: functional.
The target in data set [9] is T3, Lysine-specific demethylase 4D. Briefly: Inhibition of KDM4D (unknown origin) measured by AlphaLisa-based screening assay.
The target of data set [10] is T1, Lysine-specific demethylase 4A. Description: Inhibition of KDM4A (unknown origin) measured by AlphaLisa-based screening assay.

Consider `CN(C)C[C@H]1[C@H]2CC[C@](c3ccccc3)(C2)[C@H]1O`, for which the EC50 (in general, the concentration at which the effect is half-maximal) in data set [1] was found to be 105 µM.

As for `CN(C)CCCNC(=O)c1ccc(-c2cc(O)c3ncccc3c2)cc1`, the Papp in data set [2] is 125 nm/s.

For `CN(C)c1ccc(/C=C/c2cc[n+](Cc3ccc(F)cc3)cc2)cc1`, the affinity in data set [3], expressed as Ki, was 0.42 µM. Moreover, the concentration for half-maximal inhibition (IC50) in data set [4] and in data set [5] was 0.28 µM in each case.

As to `O=C(O)c1cc(O)c(=O)c2c(O)c(O)cc(-c3ccccc3)c2c1`, the IC50 in data set [6], in [7] and in [8] was 24.4 µM each time.

On to `Cc1nn(-c2nc3ccccc3[nH]2)c(O)c1-c1ccccc1`, for which the GI50 in the data set on DU-145 and with LNCaP was 8 µM each time.

In the case of `CC(C)(C)OC(=O)C[C@@H]1CCN(C(c2ccc(-c3ccncc3)cc2)c2cc3c(cc2O)OCO3)C1` (some centres not stated), the half-inhibitory concentration (IC50) (in general, the point on the concentration scale where inhibition reaches its midpoint) in data set [9] was 0.023 µM; in data set [10] it was greater than 100 µM.
